The text below walks through data of US12039796B2, “Method for classifying cells” (Sartorius BioAnalytical Instruments, Inc., priority 2019, dated 2024).

For one test, the system named is HT1080 fibrosarcoma. The test can be described thus: HT1080 fibrosarcoma apoptosis time course, multiplexed NucLight Red (viability) and Caspase 3/7 Green (apoptosis) readouts with cell-by-cell analysis. The class given is cell-based. As for the experimental part: Example implementations permit cell health to be tracked in sub-populations over time. […] Cell health was determined with multiplexed readouts of Incucyte® NucLight Red (nuclear viability marker) and non-perturbing Incucyte® Caspase 3/7 Green Reagent (apoptotic indicator). […] Values shown are the mean±SEM of 3 wells.
Cell health was determined with multiplexed readouts of Incucyte® NucLight Red (nuclear viability marker) and non-perturbing Incucyte® Caspase 3/7 Green Reagent (apoptotic indicator). […] Values shown are the mean±SEM of 3 wells.

In the next test the test system is A549 cells. The test can be described thus: A549 cell death concentration response, cells classed Dead or Live by Annexin V fluorescence or by label-free trained model. The class given is cell-based. The conditions noted are these: Homo sapiens, A549, 72 h, 0.1-10 μM, FIG. 16C. As for the experimental part: The classification methods described herein facilitate classification of cells with an accuracy that approximates the accuracy of fluorophore-based methods. This allows for accurate classification without the expense, complexity, or experimental confounding effects that may be associated with the use of fluorescent labels. In an experiment, A549 cells were treated with increasing concentrations of the cytotoxic compound camptothecin (0.1-10 μM) for 72 h in the presence of Annexin V reagent. The cells were classed as Dead or Live based on fluorescence Annexin response (live cells=low fluorescence, dead cells=high fluorescence). The metric-based methods described herein were used to train a model using label-free features of dead (10 μM, 72 h) and live (vehicle, 0-72 h) cells.

Setting [1] is: HT1080, after treatment, FIG. 6C.

Like-named read-outs stand apart in the source and are kept apart here.

As to `C[C@@H]1C[C@@H]([C@H](O)CC2CC(=O)NC(=O)C2)C(=O)[C@@H](C)C1` [CHX, cyclohexamide], the apoptosis entry with HT1080 fibrosarcoma (HT1080, after treatment, FIG. 6G) is reported as “lack of apoptosis”. In addition, in the test with HT1080 fibrosarcoma (HT1080, after treatment, FIG. 6G (data not shown)), the cell counts entry is “decrease in cell counts”.
In general, EC50 refers to the concentration that produces a half-maximal response. On to `CC[C@@]1(O)C(=O)OCc2c1cc1n(c2=O)Cc2cc3ccccc3nc2-1` [camptothecin], for which the concentration for a half-maximal effect (EC50) in the test on A549 cells (Annexin V fluorescence-based classification, read-out: Annexin V EC50 (% death)) was found to be 660 nM. The EC50 in the test on A549 cells (label-free metric-based trained model classification, read-out: Label-free EC50 (% death)) was 530 nM. Also, in the test with HT1080 fibrosarcoma (HT1080, after 24 hours, FIG. 6C), the “green fluorescence (late apoptosis)” value is given as “increasing green fluorescence after 24 hours indicating late apoptosis”. In the test on HT1080 fibrosarcoma (setting [1]), the “red and green fluorescence (early apoptosis)” value was “increasing red and green fluorescence indicating early apoptosis”; the “red population (NucLight Red, viable cells)” value was “decrease in the red population”.
